Where two headings read alike, the source gives them in different places.
Legend:
JAK1 = target: T1, JAK1 (Homo sapiens, UniProt P23458); experiment: JAK1 enzyme inhibition test (LANCE method); assay type: biochemical; details: for inhibition at 1 µM / Inhibitory rate (%) JAK1 1 μM: test compound 1 μM; for inhibition at 1 µM: read-out: Inhibitory rate (%) JAK1 1 μM; for inhibition at 10 µM: read-out: Inhibitory rate (%) JAK1 10 μM
T1 construct: purchased Invitrogen
Summary of the method: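 TR-FRET (LANCE) kinase assay using JAK1 at 187.5 ng/mL, ULight-JAK1 peptide at 300 nM and ATP at 150 μM, given as solution concentrations before mixing. Buffer was 50 mM HEPES pH 7.5 with 10 mM MgCl2 and 2 mM DTT, and the reaction ran 1 h at room temperature. Eu anti-phosphotyrosine signal at 665 nm was expressed relative to a no-enzyme well, taken as 100% inhibition.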

Tyk2 = target: T2, Tyk2 (Homo sapiens, UniProt P29597); experiment: Tyk2 enzyme inhibition test (LANCE method); assay type: biochemical; details: for inhibition at 1 µM / Inhibitory rate (%) Tyk2 1 μM: test compound 1 μM; for inhibition at 1 µM: read-out: Inhibitory rate (%) Tyk2 1 μM
T2 construct: purchased Invitrogen
T2 sequence (P29597 whole entry): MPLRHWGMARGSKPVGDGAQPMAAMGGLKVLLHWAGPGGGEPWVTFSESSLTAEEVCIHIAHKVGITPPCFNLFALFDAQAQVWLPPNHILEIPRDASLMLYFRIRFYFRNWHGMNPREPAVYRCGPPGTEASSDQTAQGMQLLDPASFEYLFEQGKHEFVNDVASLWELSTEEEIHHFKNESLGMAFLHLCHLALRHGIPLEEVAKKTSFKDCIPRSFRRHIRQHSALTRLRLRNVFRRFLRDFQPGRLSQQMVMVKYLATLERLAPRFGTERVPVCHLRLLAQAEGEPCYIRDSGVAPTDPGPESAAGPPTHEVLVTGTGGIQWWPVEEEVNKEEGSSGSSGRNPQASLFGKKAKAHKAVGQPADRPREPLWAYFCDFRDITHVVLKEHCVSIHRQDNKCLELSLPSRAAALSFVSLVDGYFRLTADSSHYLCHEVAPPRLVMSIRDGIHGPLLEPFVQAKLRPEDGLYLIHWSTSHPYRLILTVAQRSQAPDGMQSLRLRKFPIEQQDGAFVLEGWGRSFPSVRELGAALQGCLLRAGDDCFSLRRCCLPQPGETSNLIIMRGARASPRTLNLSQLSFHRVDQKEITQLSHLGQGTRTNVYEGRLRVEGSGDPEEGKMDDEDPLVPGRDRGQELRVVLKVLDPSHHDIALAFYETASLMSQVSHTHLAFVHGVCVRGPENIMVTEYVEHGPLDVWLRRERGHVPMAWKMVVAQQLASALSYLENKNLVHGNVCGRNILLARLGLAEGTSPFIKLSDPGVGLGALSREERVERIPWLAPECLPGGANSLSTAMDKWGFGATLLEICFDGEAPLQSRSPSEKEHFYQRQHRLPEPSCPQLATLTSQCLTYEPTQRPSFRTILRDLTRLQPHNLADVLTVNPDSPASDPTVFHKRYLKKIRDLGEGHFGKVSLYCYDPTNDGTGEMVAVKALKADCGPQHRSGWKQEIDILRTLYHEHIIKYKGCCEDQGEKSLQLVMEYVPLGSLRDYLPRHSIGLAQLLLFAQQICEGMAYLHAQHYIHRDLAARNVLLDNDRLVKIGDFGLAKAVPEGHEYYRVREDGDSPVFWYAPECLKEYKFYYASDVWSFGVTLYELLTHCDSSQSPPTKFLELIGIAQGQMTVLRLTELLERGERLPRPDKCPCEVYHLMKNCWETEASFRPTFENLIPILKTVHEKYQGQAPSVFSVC
Summary of the method: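 Recombinant Tyk2 (375 ng/mL stock) with ULight-JAK1 peptide (300 nM stock) and ATP (30 μM stock) in HEPES pH 7.5/MgCl2/EGTA/DTT buffer, 1 h at room temperature. Stopped with EDTA plus Eu-anti-phosphotyrosine antibody; TR-FRET read at 665 nm after 1 h. No-enzyme wells define 100% inhibition.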

[1] = test compound 10 μM (Ex. 182-220), beside Tyk2 1 μM

T1 sequence (P23458 whole entry): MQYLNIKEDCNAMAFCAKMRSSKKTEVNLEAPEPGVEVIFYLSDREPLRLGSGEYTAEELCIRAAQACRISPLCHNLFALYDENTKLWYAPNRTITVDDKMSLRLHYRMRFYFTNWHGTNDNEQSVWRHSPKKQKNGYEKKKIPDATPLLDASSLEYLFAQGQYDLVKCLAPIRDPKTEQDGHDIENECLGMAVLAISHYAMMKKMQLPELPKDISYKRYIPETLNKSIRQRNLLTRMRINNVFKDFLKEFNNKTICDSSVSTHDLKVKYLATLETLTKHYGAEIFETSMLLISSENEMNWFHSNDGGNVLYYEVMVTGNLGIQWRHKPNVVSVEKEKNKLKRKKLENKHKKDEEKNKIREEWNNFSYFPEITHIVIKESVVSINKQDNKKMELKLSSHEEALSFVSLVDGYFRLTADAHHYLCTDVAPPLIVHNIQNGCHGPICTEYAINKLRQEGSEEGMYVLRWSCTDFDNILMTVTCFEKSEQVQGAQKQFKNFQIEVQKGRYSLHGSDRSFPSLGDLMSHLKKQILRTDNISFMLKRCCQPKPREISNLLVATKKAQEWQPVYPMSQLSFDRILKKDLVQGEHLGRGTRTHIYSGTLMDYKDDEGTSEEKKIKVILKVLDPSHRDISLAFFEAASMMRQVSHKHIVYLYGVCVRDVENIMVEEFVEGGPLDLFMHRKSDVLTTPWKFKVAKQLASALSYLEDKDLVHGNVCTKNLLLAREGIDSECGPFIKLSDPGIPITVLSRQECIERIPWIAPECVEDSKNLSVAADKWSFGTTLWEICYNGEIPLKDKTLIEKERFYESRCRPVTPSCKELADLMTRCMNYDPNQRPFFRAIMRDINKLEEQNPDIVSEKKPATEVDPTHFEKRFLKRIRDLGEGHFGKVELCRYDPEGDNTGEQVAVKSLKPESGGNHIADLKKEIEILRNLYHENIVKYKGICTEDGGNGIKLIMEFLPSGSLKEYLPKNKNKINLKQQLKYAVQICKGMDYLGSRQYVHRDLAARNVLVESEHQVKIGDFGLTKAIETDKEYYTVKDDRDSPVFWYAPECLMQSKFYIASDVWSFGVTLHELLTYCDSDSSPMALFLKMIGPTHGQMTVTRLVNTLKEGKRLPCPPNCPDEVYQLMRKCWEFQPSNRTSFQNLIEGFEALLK

| SMILES | inhibition at 1 µM (JAK1) [%] | inhibition at 1 µM (Tyk2) [%] | other results |
| --- | --- | --- | --- |
| NC(=O)Cn1cc(-c2nn(-c3c(F)cccc3F)c3c(Br)c[nH]c(=O)c23)cn1 [Example 175, 2-(4-(7-bromo-1-(2,6-difluorophenyl)-4-oxo-4,5-dihydro-1H-pyrazolo[4,3-c]pyridin-3-yl)-1H-pyrazol-1-yl)acetamide] | 86 | 100 | – |
| N#CCc1ccc(-c2nn(-c3c(F)cccc3F)c3cc[nH]c(=O)c23)cc1 [Example 39, (4-(1-(2,6-difluorophenyl)-4-oxo-4,5-dihydro-1H-pyrazolo[4,3-c]pyridin-3-yl)phenyl)acetonitrile] | 99 | 98 | – |
| O=C1CCCN1Cc1ccc(-c2nn(-c3c(F)cccc3F)c3c(Cl)c[nH]c(=O)c23)cc1 [Example 224, 7-chloro-1-(2,6-difluorophenyl)-3-(4-((2-oxopyrrolidin-1-yl)methyl)phenyl)-1,5-dihydro-4H-pyrazolo[4,3-c]pyridin-4-one] | 78 | 99 | – |
| O=C1CCC(=O)N1Cc1ccc(-c2nn(-c3c(F)cccc3F)c3c(Cl)c[nH]c(=O)c23)cc1 [Example 219, 1-(4-(7-chloro-1-(2,6-difluorophenyl)-4-oxo-4,5-dihydro-1H-pyrazolo[4,3-c]pyridin-3-yl)benzyl)pyrrolidine-2,5-dione] | – | 98 | inhibition at 10 µM (JAK1; [1]): 82% |
| N#Cc1c[nH]c(=O)c2c(-c3csc(C(=O)O)c3)cn(C3CCCC3)c12 [Example 77, 4-(7-cyano-1-cyclopentyl-4-oxo-4,5-dihydro-1H-pyrrolo[3,2-c]pyridin-3-yl)thiophene-2-carboxylic acid] | 96 | 99 | – |
| CC(C)(C(N)=O)c1ccc(-c2nn(-c3c(F)cccc3F)c3c(Cl)c[nH]c(=O)c23)cc1 [Example 188, 2-(4-(7-chloro-1-(2,6-difluorophenyl)-4-oxo-4,5-dihydro-1H-pyrazolo[4,3-c]pyridin-3-yl)phenyl)-2-methylpropanamide] | – | 100 | inhibition at 10 µM (JAK1; [1]): 84% |
| COC(=O)c1cc(-c2nn(C3CCOCC3)c3cc[nH]c(=O)c23)cs1 [Example 21, methyl 4-(4-oxo-1-(tetrahydro-2H-pyran-4-yl)-4,5-dihydro-1H-pyrazolo[4,3-c]pyridin-3-yl)thiophene-2-carboxylate] | 97 | 95 | – |
| NS(=O)(=O)c1ccc(-c2nn(C3CCCOC3)c3cc[nH]c(=O)c23)cc1 (stereo not drawn) [Example 88, 4-(4-oxo-1-(tetrahydro-2H-pyran-3-yl)-4,5-dihydro-1H-pyrazolo[4,3-c]pyridin-3-yl)benzenesulfonamide] | – | – | Inhibitory rate (%) JAK1 1 μM (JAK1): 96%; Inhibitory rate (%) Tyk2 1 μM (Tyk2): 91% |
| CC(C)(C)n1nc(N)c2c(=O)[nH]ccc21 [Example 264, 3-amino-1-tert-butyl-1,5-dihydro-4H-pyrazolo[4,3-c]pyridin-4-one] | – | – | inhibition at 10 µM (JAK1; test compound 10 μM): 44%; inhibition at 10 µM (Tyk2; test compound 10 μM, read-out: Inhibitory rate (%) Tyk2 10 μM): 12% |
| NS(=O)(=O)c1ccc(-c2nn(C3CCOC3)c3cc[nH]c(=O)c23)cc1 (stereo not drawn) [Example 83, 4-(4-oxo-1-(tetrahydrofuran-3-yl)-4,5-dihydro-1H-pyrazolo[4,3-c]pyridin-3-yl)benzenesulfonamide] | – | – | Inhibitory rate (%) JAK1 1 μM (JAK1): 97%; Inhibitory rate (%) Tyk2 1 μM (Tyk2): 89% |
| NS(=O)(=O)c1ccc(-c2nn(C3CCOCC3)c3cc[nH]c(=O)c23)cc1 [Example 15, 4-(4-oxo-1-(tetrahydro-2H-pyran-4-yl)-4,5-dihydro-1H-pyrazolo[4,3-c]pyridin-3-yl)benzenesulfonamide] | 99 | 97 | – |
| NC(=O)Cc1cc(-c2nn(-c3c(F)cccc3F)c3c(Cl)c[nH]c(=O)c23)cs1 [Example 160, 2-(4-(7-chloro-1-(2,6-difluorophenyl)-4-oxo-4,5-dihydro-1H-pyrazolo[4,3-c]pyridin-3-yl)-2-thienyl)acetamide] | 98 | 98 | – |

Reference: patent US9371320B2, “Heterocyclic compound” (TAKEDA PHARMACEUTICAL COMPANY LIMITED, priority 2012, dated 2016)
